Source: PubChem BioAssay AID200 (DTP/NCI, 2004)
Where “and” joins values, the source holds several entries; their conditions need not be identical. Identical values can stand only once. Toxic doses and inconclusive results are not listed. Where a SMILES comes first, the peptide text is derived from it.

Tested on: B6C3F1 mice, B16 melanoma ip, median survival T/C
Assay: NCI In Vivo Anticancer Drug Screen. Data for tumor model B16 Melanoma (intraperitoneal) in B6C3F1 mice
Settings: endpoint: median survival time, higher = longer survival
In short: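 Tumor-bearing mice received test compound; a separate group got vehicle only. Survival was then compared, with results reported as treated over control.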

[1] = dose: 1.56 mg/kg/injection, schedule: Q01DX009 (ip), vehicle: saline with Tween-80
[2] = dose: 6.25 mg/kg/injection, schedule: Q01DX009 (ip), vehicle: saline with Tween-80
[3] = dose: 12.5 mg/kg/injection, schedule: Q01DX009 (ip), vehicle: saline with Tween-80
[4] = dose: 50.0 mg/kg/injection, schedule: Q01DX009 (ip), vehicle: saline with Tween-80
[5] = dose: 25.0 mg/kg/injection, schedule: Q01DX009 (ip), vehicle: saline with Tween-80
[6] = dose: 100.0 mg/kg/injection, schedule: Q01DX009 (ip), vehicle: saline with Tween-80
[7] = dose: 25.0 mg/kg/injection, schedule: Q01DX009 (ip), vehicle: Klucel (hydroxypropylcellulose) (HPC)
[8] = dose: 50.0 mg/kg/injection, schedule: Q01DX009 (ip), vehicle: Klucel (hydroxypropylcellulose) (HPC)
[9] = dose: 100.0 mg/kg/injection, schedule: Q01DX009 (ip), vehicle: Klucel (hydroxypropylcellulose) (HPC)
[10] = dose: 200.0 mg/kg/injection, schedule: Q01DX009 (ip), vehicle: Klucel (hydroxypropylcellulose) (HPC)

ClCC[Se](Cl)(Cl)c1ccccc1
T/C (dose: 1.5 mg/kg/injection, schedule: Q01DX009 (ip), vehicle: saline): 102 % of control | T/C (dose: 1.56 mg/kg/injection, schedule: Q01DX009 (ip), vehicle: saline): 113 % of control | T/C (dose: 3.0 mg/kg/injection, schedule: Q01DX009 (ip), vehicle: saline): 116 % of control | T/C (dose: 6.0 mg/kg/injection, schedule: Q01DX009 (ip), vehicle: saline): 108 % of control

O=C1NC(c2ccccc2)N=C2Oc3ccccc3C=C12 (stereo not drawn)
T/C [1]: 101 % of control | T/C (dose: 3.12 mg/kg/injection, schedule: Q01DX009 (ip), vehicle: saline with Tween-80): 103 % of control | T/C (dose: 3.13 mg/kg/injection, schedule: Q01DX009 (ip), vehicle: saline with Tween-80): 97 % of control | T/C [2]: 118 % of control and 124 % of control | T/C [3]: 116 % of control and 122 % of control | T/C [4]: 113 % of control

CC1(C)CC1(Br)Br
T/C [2]: 100 % of control | T/C [3]: 93 % of control | T/C [5]: 104 % of control | T/C [4]: 97 % of control | T/C [6]: 100 % of control | T/C (dose: 200.0 mg/kg/injection, schedule: Q01DX009 (ip), vehicle: saline with Tween-80): 92 % of control

C=C1C(=O)[C@]23C[C@H]1CC[C@H]2[C@@]12CO[C@@H](O)[C@@H]1C(C)(C)[C@@H](O)C[C@@H]2OC3=O
T/C [5]: 102 % of control | T/C [4]: 102 % of control

CCC(C)C(O)C(C)C(=O)C(C)/C=C(\C)CC(C)C1OC(=O)C1CC (stereo not drawn)
T/C (dose: 0.25 mg/kg/injection, schedule: Q01DX009 (ip), vehicle: saline + alcohol): 104 % of control | T/C (dose: 0.5 mg/kg/injection, schedule: Q01DX009 (ip), vehicle: saline + alcohol): 98 % of control and 104 % of control | T/C (dose: 1.0 mg/kg/injection, schedule: Q01DX009 (ip), vehicle: saline + alcohol): 109 % of control and 100 % of control | T/C (dose: 2.0 mg/kg/injection, schedule: Q01DX009 (ip), vehicle: saline + alcohol): 98 % of control and 103 % of control

C=C1CCC[C@@]2(C)CC[C@@H](/C(C)=C\C=C\C(C)(C)O)C[C@H]12
T/C (dose: 12.5 mg/kg/injection, schedule: Q01DX009 (ip), vehicle: Klucel + Tween-80): 113 % of control | T/C (dose: 25.0 mg/kg/injection, schedule: Q01DX009 (ip), vehicle: Klucel + Tween-80): 106 % of control | T/C (dose: 50.0 mg/kg/injection, schedule: Q01DX009 (ip), vehicle: Klucel + Tween-80): 107 % of control | T/C (dose: 100.0 mg/kg/injection, schedule: Q01DX009 (ip), vehicle: Klucel + Tween-80): 112 % of control | T/C (dose: 200.0 mg/kg/injection, schedule: Q01DX009 (ip), vehicle: Klucel + Tween-80): 90 % of control

CCCCCCC(=O)CC(SCC)c1ccccc1Cl (stereo not drawn)
T/C [5]: 86 % of control | T/C [6]: 93 % of control | T/C (dose: 400.0 mg/kg/injection, schedule: Q01DX009 (ip), vehicle: saline with Tween-80): 96 % of control

CCCCCCCCCCCCCCCC(=O)OCC1OC(n2ccc(N)nc2=O)C(O)C1O (stereo not drawn)
T/C (dose: 3.75 mg/kg/injection, schedule: Q01DX009 (ip), vehicle: saline with Tween-80): 117 % of control | T/C (dose: 7.5 mg/kg/injection, schedule: Q01DX009 (ip), vehicle: saline with Tween-80): 113 % of control and 121 % of control

O=C(O)C(CSC(c1ccccc1)(c1ccccc1)c1ccccc1)N=Cc1cccs1 (stereo not drawn)
T/C (dose: 12.5 mg/kg/injection, schedule: Q01DX009 (ip), vehicle: suspension in saline): 112 % of control | T/C (dose: 25.0 mg/kg/injection, schedule: Q01DX009 (ip), vehicle: suspension in saline): 118 % of control

O=[N+]([O-])O.O=[N+]([O-])O.[NH-]C1CCCCC1[NH-].[Pt+2] (stereo not drawn)
T/C (dose: 0.25 mg/kg/injection, schedule: Q01DX009 (ip), vehicle: other): 123 % of control | T/C (dose: 1.0 mg/kg/injection, schedule: Q01DX009 (ip), vehicle: other): 163 % of control

COc1cc(C2c3cc4c(cc3C(O)C(CO)C2CO)OCO4)cc(OC)c1OC (stereo not drawn)
T/C [3]: 111 % of control and 113 % of control | T/C [5]: 113 % of control

CC1(C)N=C(N)N=C(N)N1c1ccc(CCCCc2ccc(S(=O)(=O)F)cc2Cl)c(Cl)c1
T/C (dose: 1.56 mg/kg/injection, schedule: Q01DX009 (ip), vehicle: other): 100 % of control | T/C [1]: 122 % of control | T/C (dose: 3.12 mg/kg/injection, schedule: Q01DX009 (ip), vehicle: other): 104 % of control | T/C (dose: 6.25 mg/kg/injection, schedule: Q01DX009 (ip), vehicle: other): 109 % of control | T/C (dose: 12.5 mg/kg/injection, schedule: Q01DX009 (ip), vehicle: other): 102 % of control | T/C [5]: 156 % of control

N=C(N)c1ccc(N=Nc2c(O)ccc3cc(O)ccc23)cc1
T/C (dose: 0.19 mg/kg/injection, schedule: Q01DX009 (ip), vehicle: Klucel (hydroxypropylcellulose) (HPC)): 114 % of control | T/C (dose: 0.39 mg/kg/injection, schedule: Q01DX009 (ip), vehicle: Klucel (hydroxypropylcellulose) (HPC)): 99 % of control | T/C (dose: 0.78 mg/kg/injection, schedule: Q01DX009 (ip), vehicle: Klucel (hydroxypropylcellulose) (HPC)): 92 % of control | T/C (dose: 1.56 mg/kg/injection, schedule: Q01DX009 (ip), vehicle: Klucel (hydroxypropylcellulose) (HPC)): 92 % of control | T/C (dose: 6.25 mg/kg/injection, schedule: Q01DX009 (ip), vehicle: Klucel (hydroxypropylcellulose) (HPC)): 97 % of control | T/C (dose: 12.5 mg/kg/injection, schedule: Q01DX009 (ip), vehicle: Klucel (hydroxypropylcellulose) (HPC)): 97 % of control | T/C [7]: 87 % of control | T/C [8]: 89 % of control

CCCC(NC(=O)CNC(=O)CNC(=O)OCc1ccccc1)C(=O)O (stereo not drawn) (HELM PEPTIDE1{[O=C(OCc1ccccc1)[*:2]].G.G.[CCCC(N[*:1])C(=O)O]}$$$$V2.0)
T/C [9]: 105 % of control | T/C [10]: 103 % of control | T/C (dose: 400.0 mg/kg/injection, schedule: Q01DX009 (ip), vehicle: Klucel (hydroxypropylcellulose) (HPC)): 112 % of control

CC(NC(=O)OCc1ccccc1)C(=O)NC(C(=O)O)C(C)O (stereo not drawn)
T/C [9]: 98 % of control | T/C [10]: 106 % of control

COc1cccc2c1C(=O)c1c(O)c3c(c(O)c1C2=O)C[C@@](O)(/C(C)=N/NC(=O)c1ccc(Cl)cc1)C[C@@H]3OC1CC(N)C(O)C(C)O1 (stereo partly drawn)
T/C (dose: 0.5 mg/kg/injection, schedule: Q01DX009 (ip), vehicle: saline): 105 % of control | T/C (dose: 2.0 mg/kg/injection, schedule: Q01DX009 (ip), vehicle: saline): 183 % of control | T/C (dose: 4.0 mg/kg/injection, schedule: Q01DX009 (ip), vehicle: saline): 216 % of control | T/C (dose: 8.0 mg/kg/injection, schedule: Q01DX009 (ip), vehicle: saline): 151 % of control

O=C1CN(CO)C(=O)N1CO
T/C [7]: 93 % of control | T/C [8]: 97 % of control | T/C [9]: 110 % of control | T/C [10]: 103 % of control

O=C(NO)c1ccc(O)c(O)c1
T/C (dose: 22.5 mg/kg/injection, schedule: Q03HX024 (ip), vehicle: water): 106 % of control | T/C (dose: 25.0 mg/kg/injection, schedule: Q01DX009 (ip), vehicle: water): 100 % of control | T/C (dose: 45.0 mg/kg/injection, schedule: Q03HX024 (ip), vehicle: water): 111 % of control | T/C (dose: 50.0 mg/kg/injection, schedule: Q01DX009 (ip), vehicle: water): 109 % of control and 100 % of control | T/C (dose: 60.0 mg/kg/injection, schedule: Q01DX009 (ip), vehicle: water): 110 % of control | T/C (dose: 90.0 mg/kg/injection, schedule: Q03HX024 (ip), vehicle: water): 116 % of control | T/C (dose: 100.0 mg/kg/injection, schedule: Q01DX009 (ip), vehicle: water): 111 % of control and 116 % of control and 99 % of control | T/C (dose: 116.0 mg/kg/injection, schedule: Q01DX009 (ip), vehicle: other): 116 % of control | T/C (dose: 120.0 mg/kg/injection, schedule: Q01DX009 (ip), vehicle: water): 110 % of control | T/C (dose: 176.0 mg/kg/injection, schedule: Q01DX009 (ip), vehicle: other): 120 % of control | T/C (dose: 176.0 mg/kg/injection, schedule: Q01DX009 (ip), vehicle: water): 120 % of control | T/C (dose: 180.0 mg/kg/injection, schedule: Q03HX024 (ip), vehicle: water): 119 % of control | T/C (dose: 200.0 mg/kg/injection, schedule: Q01DX009 (ip), vehicle: water): 112 % of control and 123 % of control | T/C (dose: 270.0 mg/kg/injection, schedule: Q03HX024 (ip), vehicle: water): 87 % of control

C/C=C(\C)c1cc(=O)c2c(C)cc3c(c2o1)C(=O)c1c(O)c(C2CC(C)(N(C)C)C(OC(C)=O)C(C)O2)cc(C2CC(N(C)C)C(O)C(C)O2)c1C3=O (stereo not drawn)
T/C (dose: 0.15 mg/kg/injection, schedule: Q01DX009 (ip), vehicle: saline): 110 % of control | T/C (dose: 0.15 mg/kg/injection, schedule: Q01DX009 (ip), vehicle: suspension in saline): 102 % of control | T/C (dose: 0.31 mg/kg/injection, schedule: Q01DX009 (ip), vehicle: suspension in saline): 114 % of control | T/C (dose: 0.62 mg/kg/injection, schedule: Q01DX009 (ip), vehicle: suspension in saline): 109 % of control
